Test results from ChEMBL document CHEMBL1201862, “PubChem BioAssay data set” (2004).
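Tested at 5 concentrations; 48 h exposure; 96-well plates; endpoints linearly interpolated, else capped at highest concentration. GI50 = concentration required for 50% inhibition of growth.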 Activity calls are given as the source filed them. No stated cut-off is given here; in the data, active = GI50 up to about 1.1 µM and inactive = higher.

How the values were obtained:
Assay in all cases: growth of human tumour cells (NCI), 48 h
786-0 = test system: 786-0
A498 = test system: A498
A549 = test system: A549
ACHN = test system: ACHN
BT-549 = test system: BT-549
CAKI-1 = test system: CAKI-1
CCRF-CEM = test system: CCRF-CEM
COLO 205 = test system: COLO 205
DU-145 = test system: DU-145
EKVX = test system: EKVX
HCC 2998 = test system: HCC 2998
HCT-116 = test system: HCT-116
HCT-15 = test system: HCT-15
HL-60 = test system: HL-60
HOP-62 = test system: HOP-62
HOP-92 = test system: HOP-92
HT-29 = test system: HT-29
Hs-578T = test system: Hs-578T
IGROV-1 = test system: IGROV-1
K562 = test system: K562
KM12 = test system: KM12
LOX IMVI = test system: LOX IMVI
M14 = test system: M14
MCF7 = test system: MCF7
MDA-MB-231 = test system: MDA-MB-231
MDA-MB-435 = test system: MDA-MB-435
MDA-N = test system: MDA-N
MOLT-4 = test system: MOLT-4
Malme-3M = test system: Malme-3M
NCI-H226 = test system: NCI-H226
NCI-H23 = test system: NCI-H23
NCI-H460 = test system: NCI-H460
NCI-H522 = test system: NCI-H522
NCI/ADR-RES = test system: NCI/ADR-RES
OVCAR-3 = test system: OVCAR-3
OVCAR-4 = test system: OVCAR-4
OVCAR-5 = test system: OVCAR-5
OVCAR-8 = test system: OVCAR-8
PC-3 = test system: PC-3
RPMI-8226 = test system: RPMI-8226
RXF 393 = test system: RXF 393
SF-268 = test system: SF-268
SF-295 = test system: SF-295
SF-539 = test system: SF-539
SK-MEL-28 = test system: SK-MEL-28
SK-MEL-2 = test system: SK-MEL-2
SK-MEL-5 = test system: SK-MEL-5
SK-OV-3 = test system: SK-OV-3
SN12C = test system: SN12C
SNB-19 = test system: SNB-19
SNB-75 = test system: SNB-75
SW-620 = test system: SW-620
T47D = test system: T47D
TK-10 = test system: TK-10
U-251 = test system: U-251
UACC-257 = test system: UACC-257
UACC-62 = test system: UACC-62
UO-31 = test system: UO-31
SR = test system: SR

COc1ccc(/C=C2\CC3C4CC=C5C[C@@H](O)CC[C@]5(C)C4CC[C@]3(C)C2=O)cc1OC (stereo partly specified)
GI50 (786-0): 40.3 µM (inactive) | GI50 (A498): 28.6 µM (inactive) | GI50 (A549): 27.9 µM (inactive) | GI50 (ACHN): 24.5 µM (inactive) | GI50 (BT-549): 44.6 µM (inactive) | GI50 (CAKI-1): 29.2 µM (inactive) | GI50 (CCRF-CEM): 20.7 µM (inactive) | GI50 (COLO 205): 16.3 µM (inactive) | GI50 (DU-145): 27.5 µM (inactive) | GI50 (EKVX): 28.2 µM (inactive) | GI50 (HCC 2998): 14.9 µM (inactive) | GI50 (HCT-116): 24 µM (inactive) | GI50 (HCT-15): 34 µM | GI50 (HL-60): 13.1 µM (inactive) | GI50 (HOP-62): 44 µM (inactive) | GI50 (HOP-92): 74.6 µM (inactive) | GI50 (HT-29): 31.8 µM (inactive) | GI50 (Hs-578T): 36.5 µM (inactive) | GI50 (IGROV-1): 75.3 µM (inactive) | GI50 (K562): 12.5 µM (inactive) | GI50 (KM12): 32.8 µM (inactive) | GI50 (LOX IMVI): 30.8 µM (inactive) | GI50 (M14): 65 µM (inactive) | GI50 (MCF7): 23.3 µM (inactive) | GI50 (MDA-MB-231): 25.8 µM (inactive) | GI50 (MDA-MB-435): 24.3 µM (inactive) | GI50 (MDA-N): 42.2 µM (inactive) | GI50 (MOLT-4): 20 µM (inactive) | GI50 (Malme-3M): 27.2 µM (inactive) | GI50 (NCI-H226): 29.4 µM (inactive) | GI50 (NCI-H23): 42.6 µM (inactive) | GI50 (NCI-H460): 17.3 µM (inactive) | GI50 (NCI-H522): 17.2 µM (inactive) | GI50 (NCI/ADR-RES): 45 µM (inactive) | GI50 (OVCAR-3): 5.09 µM (inactive) | GI50 (OVCAR-4): 21.8 µM (inactive) | GI50 (OVCAR-5): 43.5 µM (inactive) | GI50 (OVCAR-8): 43.3 µM (inactive) | GI50 (PC-3): 25.9 µM (inactive) | GI50 (RPMI-8226): 10.2 µM (inactive) | GI50 (RXF 393): 34 µM (inactive) | GI50 (SF-268): 64.7 µM (inactive) | GI50 (SF-295): 11.4 µM (inactive) | GI50 (SF-539): 57.8 µM (inactive) | GI50 (SK-MEL-28): 81.1 µM (inactive) | GI50 (SK-MEL-2): 24.2 µM (inactive) | GI50 (SK-MEL-5): 7.05 µM (inactive) | GI50 (SK-OV-3): 41.6 µM (inactive) | GI50 (SN12C): 23.1 µM (inactive) | GI50 (SNB-19): 62.4 µM (inactive) | GI50 (SNB-75): 16 µM (inactive) | GI50 (SW-620): 65.6 µM (inactive) | GI50 (T47D): 8.28 µM (inactive) | GI50 (TK-10): 32.3 µM (inactive) | GI50 (U-251): 26.2 µM (inactive) | GI50 (UACC-257): 13 µM (inactive) | GI50 (UACC-62): 42.9 µM (inactive) | GI50 (UO-31): 14.8 µM (inactive)

O=C(O)c1ccccc1CC1Cc2ccc3c(c2C1=O)CCC3 (stereo unspecified)
GI50 (786-0): > 100 µM (inactive) | GI50 (A549): > 100 µM (inactive) | GI50 (ACHN): > 100 µM (inactive) | GI50 (BT-549): > 100 µM (inactive) | GI50 (CAKI-1): > 100 µM (inactive) | GI50 (CCRF-CEM): > 100 µM (inactive) | GI50 (COLO 205): > 100 µM (inactive) | GI50 (DU-145): > 100 µM (inactive) | GI50 (EKVX): > 100 µM (inactive) | GI50 (HCC 2998): > 100 µM (inactive) | GI50 (HCT-116): > 100 µM (inactive) | GI50 (HCT-15): > 100 µM | GI50 (HL-60): > 100 µM (inactive) | GI50 (HOP-62): > 100 µM (inactive) | GI50 (HOP-92): > 100 µM (inactive) | GI50 (HT-29): > 100 µM (inactive) | GI50 (Hs-578T): > 100 µM (inactive) | GI50 (IGROV-1): > 100 µM (inactive) | GI50 (K562): > 100 µM (inactive) | GI50 (KM12): > 100 µM (inactive) | GI50 (LOX IMVI): > 100 µM (inactive) | GI50 (M14): 61.8 µM (inactive) | GI50 (MCF7): > 100 µM (inactive) | GI50 (MDA-MB-231): > 100 µM (inactive) | GI50 (MDA-MB-435): > 100 µM (inactive) | GI50 (MDA-N): > 100 µM (inactive) | GI50 (MOLT-4): > 100 µM (inactive) | GI50 (Malme-3M): > 100 µM (inactive) | GI50 (NCI-H226): > 100 µM (inactive) | GI50 (NCI-H23): > 100 µM (inactive) | GI50 (NCI-H460): > 100 µM (inactive) | GI50 (NCI-H522): > 100 µM (inactive) | GI50 (NCI/ADR-RES): > 100 µM (inactive) | GI50 (OVCAR-3): > 100 µM (inactive) | GI50 (OVCAR-4): > 100 µM (inactive) | GI50 (OVCAR-5): > 100 µM (inactive) | GI50 (OVCAR-8): > 100 µM (inactive) | GI50 (PC-3): > 100 µM (inactive) | GI50 (RPMI-8226): > 100 µM (inactive) | GI50 (RXF 393): > 100 µM (inactive) | GI50 (SF-268): > 100 µM (inactive) | GI50 (SF-295): > 100 µM (inactive) | GI50 (SF-539): > 100 µM (inactive) | GI50 (SK-MEL-28): > 100 µM (inactive) | GI50 (SK-MEL-2): > 100 µM (inactive) | GI50 (SK-MEL-5): > 100 µM (inactive) | GI50 (SK-OV-3): > 100 µM (inactive) | GI50 (SN12C): > 100 µM (inactive) | GI50 (SNB-19): > 100 µM (inactive) | GI50 (SNB-75): 87.1 µM (inactive) | GI50 (SR): > 100 µM (inactive) | GI50 (SW-620): > 100 µM (inactive) | GI50 (T47D): > 100 µM (inactive) | GI50 (TK-10): > 100 µM (inactive) | GI50 (U-251): > 100 µM (inactive) | GI50 (UACC-257): > 100 µM (inactive) | GI50 (UACC-62): > 100 µM (inactive) | GI50 (UO-31): > 100 µM (inactive)
